The values below come from US8003572B2 (priority 2004, dated 2011).

The test system of data set [1] is C85 colorectal adenocarcinoma cells. The data set can be described thus: Clonogenic assay with C85 colorectal adenocarcinoma cells. The class given is cell-based, human. As to the method:
Compounds identified by structure based screening were assayed in a clonogenic assay with C85 colorectal adenocarcinoma cells. Briefly, C85 cells were plated at 200 cells per well in six well plates. Seventy-two hours after plating, compounds 05RB, 0BWP, 0FZK, 0RZL, HBS01, 01LX, 0464, 1BJO AND 27NT were added at various concentrations (See Table 1). Colonies were counted 96 hours after treatment and IC50 concentrations determined (Table 1).

The test system of the next data set is cyclin-B. The data set can be described thus: Ubiquination of cyclin-B in C85 cell lysates (Western blot). The conditions noted are these: C85 cells treated for 24 hrs. Format: cell-based. As to the method:
The ability of HBS01 to inhibit protein ubiquination of cyclin-B was assayed in C85 cell lines. Briefly, C85 cells were plated at 200 cells per well in six well plates. Cells were either untreated (controls) or treated for 24 hrs with HBS01. After the treatment period, cells were harvested and extracts were prepared from the cells by freeze fracturing in liquid nitrogen in breakage buffer (50 mM Tris pH 7.5, 1 mM DTT, “Complete” protease inhibitor cocktail (Roche, Cat.# 1697498), 10 μM MG132). Roughly […] of total protein extracts in 300 μl of breakage buffer was supplemented with 20 μg of PHH-Ub (HA and His6 tagged Ubiquitin) and incubated at 30° C. for 60 min. 3×SDS-PAGE sample buffer was added to 40 μl of this reaction and boiled for 3 min. The extracts were run on 12% Laemmli gels and Western Blots were performed with anti-cyclin-B antibody (Santa Cruz Biotechnology, Inc., Santa Cruz, Calif.). Results were visualized by ECL, with the ECL plus western blot detection kit (Amersham Biosciences, Piscataway, N.J.) according to manufacturers instructions.
In general terms: A western blot detects proteins with antibodies after separation by electrophoresis.

For data set [2], the system named is protein ubiquination pathways. Put plainly: Protein ubiquination in C85 cell lysates (HA-tagged ubiquitin Western blot). Format: cell-based. The conditions noted are these: C85 cells treated for 24 or 48 hrs. As to the method:
Briefly, C85 cells were plated at 200 cells per well in six well plates.
Cells were either untreated (controls) or treated for 24 or 48 hrs with HBS01. After the treatment period, cells were harvested and extracts were prepared from the cells by freeze fracturing in liquid nitrogen in breakage buffer (50 mM Tris pH 7.5, 1 mM DTT, “Complete” protease inhibitor cocktail (Roche, Cat.# 1697498), 10 μM MG132). Roughly […] of total protein extracts in 300 μl of breakage buffer was supplemented with 20 μg of PHH-Ub (HA and His6 tagged Ubiquitin) and incubated at 30° C. for 60 min. 3×SDS-PAGE sample buffer was added to 40 μl of this reaction and boiled for 3 min. The extracts were run on 12% Laemmli gels that were either stained with Coomassie Blue R-250 or blotted with HRP conjugated 12CA5 monoclonal antibody (Roche, Inc., Indianapolis, Ind.) and visualized by ECL, with the ECL plus western blot detection kit (Amersham Biosciences, Piscataway, N.J.) according to manufacturers instructions.

Data set [3] has as its system C85 human colorectal cancer cells. The data set can be described thus: C85 colorectal tumors in nude mice. The class given is in vivo. As to the method: (§1) C85 human colorectal cancer cell growth was assessed in nude mice (NIH, Cr:(MCr)-Fox1nu(nu/nu homogygous), Taconic Inc., Germantown, N.Y.) treated or pretreated with HBS01 over a 19 day period. Briefly, pretreated animals were administered three daily doses of HBS01 at 17 mg/Kg given on day −3, −2, and −1 prior to tumor cell injection on day 0. No further treatment was given to the pretreated animals. Nude mice were injected in the flanks with 1 million C85 human colorectal cancer cells. Treated animals were treated with daily injections of HBS01 at 17 mg/kg per at days 10, 11, 12, 15, 16 and 17 following appearance of palpable tumors on day 10.
Tumor diameters were measured with calipers every alternate day and tumor volumes were calculated by ½ab^2 where a is the larger diameter (Friedman, H S., et al. Cancer Res. 46, 2827-2833). The results are shown in FIG. 3 as tumor volume in cm^3.

A short description of data set [4]: Maximum tolerated dose in mice. The conditions noted are these: nude, mouse, in vivo.
For a further data set, the system named is MCF-7. Put plainly: MTS cell proliferation assay in MCF-7. The conditions noted are these: Homo sapiens, MCF7. The class given is cell-based. Here is the method:
(§2) In order to determine the IC50 values of HBS01 an MTS assay was performed on MCF-7 and MCF-7/ADR (adramycin resistance) cell lines. Cells were plated in a 96 well plate at 5,000 cells/well. After plating, cells were treated for 96 hours with either HBS01, methotrexate (MTX), doxyrubicin (DOX), or 5-Fluorouracil (5FU) and an MTS assay was performed according to manufacturer's protocol with the CELL TITER 96 AQ non-radioactive cell proliferation assay kit (Promega, Cat. No. G5421). Viable cells were quantitated based on absorbance at 490 nm. […] Thus, HBS01 was an extremely potent inhibitor of MCF-7 and MCF-7Adr proliferation.
Background: Tetrazolium assays rely on reduction of a dye to a coloured formazan, in cell work by metabolically active cells.

The test system of data set [5] is MCF-7 breast cancer cells. The data set can be described thus: MCF-7 breast cancer tumors in nude mice. Format: in vivo. Here is the method: as §1, with “MCF-7 breast” for “C85 human colorectal”, “31 days.” for “a 19 day period.”, “200,000 MCF-7 breast” for “1 million C85 human colorectal”, “10. Tumor diameters were measured with calipers every alternate day and tumor volumes were calculated by ½ab^2 where a is the larger diameter (Friedman, H S., et al. Cancer Res. 46, 2827-2833). The results are shown in FIG. 4 as tumor volume in cm^3.” for “10.”

A further data set concerns EGFP marked C85 cells. The data set can be described thus: Metastatic growth of EGFP marked C85 cells in nude mice. Format: in vivo. Conditions: pre-treated 14.5 mg/kg every 24 hrs for five days; ten days post-C85 tail vein injection. As to the method:
The effect of HBS01 on the metastatic growth of enhanced green fluorescent protein (EGFP) marked C85 cells was assayed in nude mice (NIH, Cr:(MCr)-Fox1nu(nu/nu homogygous), Taconic Inc., Germantown, N.Y.). Briefly, nude mice were pre-treated with 14.5 mg/kg of HBS01 every 24 hrs for five days. At the completion of pre-treatment the pre-treated or control non-treated mice were injected in the tail vein with 1×10^6 EGFP marked C85 cells. Ten days post-C85 injection, the mice were dissected and tumor size assessed based on intravital fluorescence imaging and liver biopsies.

The subject of data set [6] is MCF-7/ADR (adramycin resistance) cell line. The data set can be described thus: MTS cell proliferation assay in MCF-7/ADR. The class given is cell-based. The conditions noted are these: Homo sapiens, NCI/ADR-RES. As to the method:
as §2

[7] abbreviates: Homo sapiens, C85 cells, colonies counted 96 hours after treatment.
The mark [8] stands for this setting: pretreated animals, 17 mg/Kg on day -3, -2 and -1 prior to tumor cell injection.

A word on the IC50: it is the concentration at which inhibition is half-maximal. The compound `NC(=O)c1ccc([N+](=O)[O-])cc1Cl` [Compound 0BWP, 2-Chloro-4-nitrobenzamide] returned an IC50 in data set [1] (setting [7]) of 600000 nM.
Compound `Oc1cc(Cl)cnc1O` [Compound 0FZK, 5-chloro-2,3-dihydroxypyridine] returned an IC50 in [1] (setting [7]) of 175000 nM.
`CC1CN(c2ccccc2)NC1=O` (centres unmarked) [Compound 0RZL, 1-Phenyl-4-methyl-3-pyrazolidone] gave an IC50 in data set [1] (setting [7]) of 50000 nM.
In [1] (setting [7]), `CC(=O)Nc1ccccc1O` [Compound 01LX, 2-Acetamidophenol] yielded an IC50 of 375000 nM.
In turn, `Nc1ccc(Nc2ccccc2)cc1` [Compound 05RB, N-Phenyl-4-phenylenediamine] yielded an IC50 in [1] (C85 cells, colonies counted 96 hours after treatment) of 37500 nM.
On to `Nc1ccc2cn[nH]c2c1` [Compound 0464, 6-AMINOINDAZOLE], for which inhibition in data set [1] (setting [7]) was half-maximal at 70000 nM (IC50).
The MTD is the largest dose that counted as tolerated. Read a low MTD as a narrow tolerated range. `NCC1CCNCC1` [HBS01, 4-(Aminomethyl)piperidine]: the IC50 worked out at 30 nM in [1] (Homo sapiens, C85 cells, colonies counted 96 hours after treatment, * denotes nM); 30 nM in data set [1] (human colon cancer cell line C85); 0.03 µM in the data set with MCF-7 (MCF-7, treated for 96 hours, MTS); 0.03 µM in the data set with MCF-7 (breast cancer cell line MCF-7); 0.03 µM in [6] (MCF-7Adr, treated for 96 hours, MTS); 0.03 µM in data set [6] (breast cancer cell line MCF-7Adr). Moreover, in the data set with cyclin-B, the “ubiquination of cyclin-B” value is on record as “selectively inhibited the ubiquination of cyclin-B”. In addition, the “general ubiquitin conjugation (ubiquitin intensities and banding patterns)” value in [2] was “general inactivation of the ubiquitin conjugation pathways did not occur”. For the same compound, the “tumor growth (tumor volume)” value in data set [3] (setting [8]) is “delayed tumor growth”; in data set [5] (treated animals, 17 mg/kg daily at days 10, 11, 12, 15, 16 and 17), “significantly inhibited tumor growth”. Also, the “growth of established tumors (tumor volume)” value in data set [3] (treated animals, 17 mg/kg daily at days 10, 11, 12, 15, 16 and 17, 17 mg/kg) is “significantly inhibited the growth of established tumors”. This compound came in with an MTD in data set [4] of 1400 mg/kg. The “onset of tumors (tumor volume)” value in data set [5] (setting [8]) was “delayed the onset of MCF-7 tumors”. Further, the metastatic tumors result in the data set with EGFP marked C85 cells is “metastatic tumors were not detectable”.
